{"source": "patent US20100210653A1", "about": "“Novel Compounds, Their Preparations and Use” (HIGH POINT PHARMACEUTICALS, LLC, priority 2004, published 2010)", "origin": "cited, not measured here", "key": {"C2C12 muscle cells": {"test_system": "C2C12 muscle cells", "conditions": "in vitro treatment, two publications"}, "[1]": {"test_system": "high fat diet induced insulin resistant mice and diabetic ob/ob", "conditions": "PNAS 2003, 100, 15924-15929"}}}
{"smiles": "Cc1cc(SCc2sc(-c3ccc(C(F)(F)F)cc3)nc2C)ccc1OCC(=O)O", "note": "[GW501516]", "values": [{"measurement": "regulation of genes (LPL, ACS4, CTP1, PDK4, UCP1, -2, -3, ABCA1/G1)", "setting": "C2C12 muscle cells", "value": "regulation of genes involved with TG hydrolysis and FFA oxidation"}, {"measurement": "insulin sensitivity", "setting": "[1]", "value": "improved insulin sensitivity"}, {"measurement": "plasma glucose and insulin", "setting": "[1]", "value": "lowering of plasma glucose and insulin"}]}
